Data published in patent US12336981B2, “Compounds and compositions for the inhibition of NAMPT” (Valo Health, Inc., priority 2010, dated 2025).
Where two headings read alike, the source gives them in different places.

Columns and labels:
NAMPT = target: T1, NAMPT (Homo sapiens, UniProt P43490); assay: Biochemical inhibition assay: NAMPT enzymatic reaction, NMN quantified by mass spectrometry; settings: read-out: Biochem IC50
T1 construct: His tag; host or cells: E. coli
How it was run: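 Inhibition of E. coli-expressed His-tagged human NAMPT, measured as NMN formation by mass spectrometry after a 30 min room-temperature reaction containing 1 μM NAM, 100 μM PRPP and 2.5 mM ATP.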

A2780 cells = assay: In-vitro cell proliferation assay (SRB), A2780 cells; assay type: cell-based; settings: Homo sapiens, A2780, 72 h, A2780 cells, 72 hours, read-out: A2780 IC50
How it was run: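 Cells were plated overnight at 37° C., 5% CO2, then exposed to serially diluted compounds (0.1% DMSO final) for 72 hours. Viable cells were measured by sulforhodamine B staining after TCA fixation, read at 570 nm; media-only background was subtracted before % inhibition was calculated.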

T1 sequence (P43490 whole entry): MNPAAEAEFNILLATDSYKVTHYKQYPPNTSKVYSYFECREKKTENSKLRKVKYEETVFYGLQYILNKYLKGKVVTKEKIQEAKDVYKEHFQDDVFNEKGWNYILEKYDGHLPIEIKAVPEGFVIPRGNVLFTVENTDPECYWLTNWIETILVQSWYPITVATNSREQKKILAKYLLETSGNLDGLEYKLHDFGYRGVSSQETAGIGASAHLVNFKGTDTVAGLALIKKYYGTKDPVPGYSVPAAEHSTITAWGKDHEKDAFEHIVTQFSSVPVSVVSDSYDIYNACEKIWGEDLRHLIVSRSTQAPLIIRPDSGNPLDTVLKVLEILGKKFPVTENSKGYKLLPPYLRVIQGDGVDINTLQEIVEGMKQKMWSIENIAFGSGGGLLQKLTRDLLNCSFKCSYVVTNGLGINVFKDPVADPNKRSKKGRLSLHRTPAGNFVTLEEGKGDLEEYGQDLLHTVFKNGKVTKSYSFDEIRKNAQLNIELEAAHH

Row | SMILES | IC50 (NAMPT; NAMPT enzymatic reaction) | IC50 (A2780 cells; SRB) | IC50 (NAMPT; NAMPT enzymatic assay) | IC50 (A2780 cells; SRB assay)
1 | COc1ccc(S(=O)(=O)c2ccc(CNC(=O)c3ccc4nccn4c3)cc2)c(Cl)c1 | 16.7 nM | 11.4 nM | – | –
2 | O=C(NCc1ccc(S(=O)(=O)c2cccnc2N2CCOCC2)cc1)c1cc2ccncc2o1 [N-({4-[2-(morpholin-4-yl)pyridine-3-sulfonyl]phenyl}methyl)furo[2,3-c]pyridine-2-carboxamide] | – | 60.5 nM | 32.5 nM | –
3 | COc1cc(C)cc(S(=O)(=O)c2ccc(CNC(=O)c3cc4ccncc4o3)cc2)c1 | 2.2 nM | 1.6 nM | – | –
4 | COc1cc(Cl)cc(S(=O)(=O)c2ccc(CNC(=O)c3cc4ccncc4s3)cc2)c1 | 4.1 nM | 1.1 nM | – | –
5 | COc1ccc(Cl)c(S(=O)(=O)c2ccc(CNC(=O)c3cnc4nccn4c3)cc2)c1 | 6.1 nM | 51.5 nM | – | –
6 | Cc1cccc(S(=O)(=O)c2ccc(CNC(=O)c3ccc4nccn4c3)cc2)c1 [N-({4-[(3-methylbenzene)sulfonyl]phenyl}methyl)imidazo[1,2-a]pyridine-6-carboxamide] | 8.12 nM | 6.39 nM | – | –
7 | Cc1ccc(Cl)c(S(=O)(=O)c2ccc(CNC(=O)c3cc4ccncc4o3)cc2)c1Cl | 10.8 nM | 16.2 nM | – | –
8 | O=C(NCc1ccc(S(=O)(=O)c2cccc(-c3ncccn3)c2)cc1)c1ccc2nccn2c1 | – | 3.8 nM | 21.9 nM | –
9 | O=C(NCc1ccc(S(=O)(=O)c2ccc(C(F)(F)F)cn2)cc1)c1cc2ccncc2s1 [N-({4-[5-(trifluoromethyl)pyridine-2-sulfonyl]phenyl}methyl)thieno[2,3-c]pyridine-2-carboxamide] | – | 100 to 1000 nM | 23.5 nM | –
10 | O=C(NCc1ccc(S(=O)(=O)c2cccc3c2oc2ccccc23)cc1)c1cnc2[nH]ncc2c1 | – | 7.52 nM | 21 nM | –
11 | O=C(NCc1ccc(S(=O)(=O)c2ccc(C(F)(F)F)cc2F)cc1)c1cc2cnccc2[nH]1 [N-[(4-{[2-fluoro-4-(trifluoromethyl)benzene]sulfonyl}phenyl)methyl]-1H-pyrrolo[3,2-c]pyridine-2-carboxamide] | – | 28.1 nM | 80.2 nM | –
12 | O=C(NCc1ccc(S(=O)(=O)c2cnc3n2CCCCC3)cc1)c1cc2ccncc2s1 [N-[(4-{5H,6H,7H,8H,9H-imidazo[1,2-a]azepine-3-sulfonyl}phenyl)methyl]thieno[2,3-c]pyridine-2-carboxamide] | – | 0.8 nM | 3 nM | –
13 | O=C(NCc1ccc(S(=O)(=O)c2ccc(OCC(F)(F)F)c(F)c2)cc1)c1ccc2nccn2c1 | – | 8 nM | 15 nM | –
14 | CCS(=O)(=O)c1cccc(S(=O)(=O)c2ccc(CNC(=O)c3cnc4nccn4c3)cc2)c1 | – | 64.5 nM | 2.7 nM | –
15 | CCCOc1ccc(S(=O)(=O)c2ccc(CNC(=O)c3cnc4nccn4c3)cc2)c(C)c1 | 10 nM | 51.8 nM | – | –
16 | O=C(NCc1ccc(S(=O)(=O)c2cccc(C(F)(F)F)n2)cc1)c1cc2ccncc2o1 [N-({4-[6-(trifluoromethyl)pyridine-2-sulfonyl]phenyl}methyl)furo[2,3-c]pyridine-2-carboxamide] | – | 3.1 nM | 5 nM | –
17 | CCCCOc1ccc(Cl)cc1S(=O)(=O)c1ccc(CNC(=O)c2ccc3nccn3c2)cc1 | 11 nM | 8 nM | – | –
18 | Cc1cccc(S(=O)(=O)c2ccc(CNC(=O)c3cc4ccncc4s3)cc2)c1F | 10.7 nM | 3.3 nM | – | –
19 | O=C(NCc1ccc(S(=O)(=O)c2cccc(Oc3ccc(F)cc3)c2)cc1)c1ccc2nccn2c1 | – | 34 nM | 15.1 nM | –
20 | Cc1cncc(S(=O)(=O)c2ccc(CNC(=O)c3cc4ccncc4s3)cc2)c1 [N-{[4-(5-methylpyridine-3-sulfonyl)phenyl]methyl}thieno[2,3-c]pyridine-2-carboxamide] | – | 2.5 nM | 6 nM | –
21 | Cc1cn(C)c(S(=O)(=O)c2ccc(CNC(=O)c3cc4ccncc4o3)cc2)n1 [N-{[4-(1,4-dimethyl-1H-imidazole-2-sulfonyl)phenyl]methyl}furo[2,3-c]pyridine-2-carboxamide] | – | 100 to 1000 nM | 60.7 nM | –
22 | O=C(NCc1ccc(S(=O)(=O)c2cccc(N3CCCC3)c2)cc1)c1ccc2ncsc2c1 | – | 1000 to 10000 nM | 8.8 nM | –
23 | O=C(NCc1ccc(S(=O)(=O)c2ccc(F)c(C(F)(F)F)c2)cc1)c1cc2ccncc2o1 | – | 7.2 nM | 8.2 nM | –
24 | CC(C)Oc1cc(F)ccc1S(=O)(=O)c1ccc(CNC(=O)c2cc3cnccc3[nH]2)cc1 | – | 3.3 nM | 25.4 nM | –
25 | COc1cccc(S(=O)(=O)c2ccc(CNC(=O)c3cnc4nccn4c3)cc2)n1 [N-{[4-(6-methoxypyridine-2-sulfonyl)phenyl]methyl}imidazo[1,2-a]pyrimidine-6-carboxamide] | – | 5.9 nM | 2.2 nM | –
26 | CCOc1ccc(S(=O)(=O)c2ccc(CNC(=O)c3cnc4nccn4c3)cc2)cc1 | 2 nM | 6.1 nM | – | –

Row | SMILES | IC50 (NAMPT; NAMPT enzymatic reaction) | IC50 (A2780 cells; SRB) | IC50 (NAMPT; NAMPT enzymatic assay) | IC50 (A2780 cells; SRB assay)
27 | Cc1cccc(C)c1S(=O)(=O)c1ccc(CNC(=O)c2cc3ccncc3o2)cc1 | 32.3 nM | 100 to 1000 nM | – | –
28 | O=C(NCc1ccc(S(=O)(=O)c2ccc(C3CCCCC3)cc2)cc1)c1cc2ccncc2s1 | 3.4 nM | 12.9 nM | – | –
29 | Cn1cc2ccc(S(=O)(=O)c3ccc(CNC(=O)c4cc5ccncc5s4)cc3)cc2n1 [N-{[4-(2-methyl-2H-indazole-6-sulfonyl)phenyl]methyl}thieno[2,3-c]pyridine-2-carboxamide] | – | 1.5 nM | 1.4 nM | –
30 | O=C(NCc1ccc(S(=O)(=O)c2ccc3nc(C(F)(F)F)cn3c2)cc1)c1cc2ccncc2o1 [N-({4-[2-(trifluoromethyl)imidazo[1,2-a]pyridine-6-sulfonyl]phenyl}methyl)furo[2,3-c]pyridine-2-carboxamide] | – | 11.9 nM | 21.2 nM | –
31 | CCCCc1ccc(S(=O)(=O)c2ccc(CNC(=O)c3cnc4[nH]ncc4c3)cc2)cc1 [N-({4-[(4-butylbenzene)sulfonyl]phenyl}methyl)-1H-pyrazolo[3,4-b]pyridine-5-carboxamide] | 71.2 nM | 68.4 nM | – | –
32 | O=C(Nc1ccc(S(=O)(=O)c2ccccc2)cc1)c1cccnc1 [N-[4-(benzenesulfonyl)phenyl]pyridine-3-carboxamide] | 12000 nM | – | – | > 30000 nM
33 | COc1ccc(S(=O)(=O)c2ccc(CNC(=O)c3ccc4nccn4c3)cc2)cc1OC [N-({4-[(3,4-dimethoxybenzene)sulfonyl]phenyl}methyl)imidazo[1,2-a]pyridine-6-carboxamide] | 12 nM | 2.51 nM | – | –
34 | O=C(NCc1ccc(S(=O)(=O)c2ccc(C(F)(F)F)cc2)cc1)c1cnc2nccn2c1 | – | 23.5 nM | 6 nM | –
35 | O=C(NCc1ccc(S(=O)(=O)c2cnc3ccc(Cl)cn23)cc1)c1cnc2nccn2c1 [N-[(4-{6-chloroimidazo[1,2-a]pyridine-3-sulfonyl}phenyl)methyl]imidazo[1,2-a]pyrimidine-6-carboxamide] | – | 0.4 nM | 1.6 nM | –
36 | CCOc1cc(F)ccc1S(=O)(=O)c1ccc(CNC(=O)c2ccc3nccn3c2)cc1 | 31.4 nM | 1.5 nM | – | –
37 | Cc1cc(-n2cccn2)ccc1S(=O)(=O)c1ccc(CNC(=O)c2cc3ccncc3o2)cc1 | – | 6 nM | 6.2 nM | –
38 | COc1ccc(C(C)(C)C)cc1S(=O)(=O)c1ccc(CNC(=O)c2cnc3[nH]ncc3c2)cc1 | – | 21.6 nM | 45.6 nM | –
39 | COc1ccc(S(=O)(=O)c2ccc(CNC(=O)c3cnc4nccn4c3)cc2)c(C)c1 | 2.4 nM | 67.9 nM | – | –
40 | COc1ccc(F)cc1NS(=O)(=O)c1ccc(CNC(=O)c2cc3cnccc3[nH]2)cc1 [N-({4-[(5-fluoro-2-methoxyphenyl)sulfamoyl]phenyl}methyl)-1H-pyrrolo[3,2-c]pyridine-2-carboxamide] | 232 nM | – | – | > 30000 nM
41 | CCOc1cc(Cl)ccc1S(=O)(=O)c1ccc(CNC(=O)c2cnc3nccn3c2)cc1 | 2 nM | 4.5 nM | – | –
42 | O=C(NCc1ccc(S(=O)(=O)c2cccc3c2sc2ccccc23)cc1)c1cc2ccncc2o1 | – | 12 nM | 8.7 nM | –
43 | CCOc1cccc(S(=O)(=O)c2ccc(CNC(=O)c3ccc4nccn4c3)cc2)c1 | 5 nM | 3.1 nM | – | –
44 | Cc1ccncc1S(=O)(=O)c1ccc(CNC(=O)c2cnc3[nH]ncc3c2)cc1 [N-{[4-(4-methylpyridine-3-sulfonyl)phenyl]methyl}-1H-pyrazolo[3,4-b]pyridine-5-carboxamide] | – | 271 nM | 100 to 1000 nM | –
45 | COc1ccc(S(=O)(=O)c2ccc(CNC(=O)c3cnc4nccn4c3)cc2)cc1C | 2.2 nM | 5.5 nM | – | –
46 | COc1ccc(S(=O)(=O)c2ccc(CNC(=O)c3cc4ccncc4s3)cc2)cc1Cl [N-({4-[(3-chloro-4-methoxybenzene)sulfonyl]phenyl}methyl)thieno[2,3-c]pyridine-2-carboxamide] | 5 nM | 1.6 nM | – | –
47 | CCCOc1cccc(S(=O)(=O)c2ccc(CNC(=O)c3cc4ccncc4s3)cc2)c1 | 4 nM | 12.2 nM | – | –
48 | Cn1c(S(=O)(=O)c2ccc(CNC(=O)c3cc4ccncc4s3)cc2)cc2ccccc21 [N-{[4-(1-methyl-1H-indole-2-sulfonyl)phenyl]methyl}thieno[2,3-c]pyridine-2-carboxamide] | – | 3.4 nM | 5.2 nM | –
49 | O=C(NCc1ccc(S(=O)(=O)c2cccc(Cl)c2)cc1)c1cc2ccncc2s1 [N-({4-[(3-chlorobenzene)sulfonyl]phenyl}methyl)thieno[2,3-c]pyridine-2-carboxamide] | 5 nM | – | – | 3 nM
50 | O=C(NCc1ccc(S(=O)(=O)c2cc(F)ccc2Cl)cc1)c1cc2cnccc2[nH]1 | 28.1 nM | 12.1 nM | – | –
51 | CCOc1ccccc1S(=O)(=O)c1ccc(CNC(=O)c2cc3ccncc3s2)cc1 [N-({4-[(2-ethoxybenzene)sulfonyl]phenyl}methyl)thieno[2,3-c]pyridine-2-carboxamide] | 2 nM | – | – | 0.8 nM
